In paper PMC7763892, “Anti-Inflammatory Effect of Homo- and Heterodimers of Natural Enkephalinase Inhibitors in Experimental Colitis in Mice” (Molecules, 2020):
Where a SMILES comes first, the peptide text is derived from it.

How the values were obtained:
[1] = Stability in human plasma; format: in vitro ADME; settings: RP-HPLC
Method: Plasma-stability assays were performed, as described previously. The sample preparation and the analysis of peptide I were both performed in the same way as in our previous work. Peptides III and X were analyzed by RP-HPLC using a linear gradient of 20–80% B over 20 min with the same solvent system of 0.1% TFA in water (A) and 0.1% TFA in acetonitrile (B), with a flow rate of 1.5 mL/min. All measurements were performed in triplicate.

[2] = Solubility in Tris-HCl buffer; format: physicochemical; settings: Tris-HCl buffer + 3% DMSO
Method: The designed dimers (peptides IX–XI) were sparingly soluble in Tris-HCl buffer. To improve their solubility in Tris-HCl buffer, 3% DMSO was added to the samples. […] In the time of analysis of spinorphin (III) and peptide IV, products with the same retention time as the analyzed substrate, were created, which made determining the inhibitory activity of the investigated peptides against NEP impossible.

[3] = target: neutral endopeptidase (NEP) (Homo sapiens, UniProt P08473); settings: Tris-HCl buffer 50 mM, pH 7.4, 37 °C, RP-HPLC, mean ± SEM, ref Sobocińska et al. [24], cited from earlier work
Sequence of neutral endopeptidase (NEP) (P08473 whole entry, species assumed): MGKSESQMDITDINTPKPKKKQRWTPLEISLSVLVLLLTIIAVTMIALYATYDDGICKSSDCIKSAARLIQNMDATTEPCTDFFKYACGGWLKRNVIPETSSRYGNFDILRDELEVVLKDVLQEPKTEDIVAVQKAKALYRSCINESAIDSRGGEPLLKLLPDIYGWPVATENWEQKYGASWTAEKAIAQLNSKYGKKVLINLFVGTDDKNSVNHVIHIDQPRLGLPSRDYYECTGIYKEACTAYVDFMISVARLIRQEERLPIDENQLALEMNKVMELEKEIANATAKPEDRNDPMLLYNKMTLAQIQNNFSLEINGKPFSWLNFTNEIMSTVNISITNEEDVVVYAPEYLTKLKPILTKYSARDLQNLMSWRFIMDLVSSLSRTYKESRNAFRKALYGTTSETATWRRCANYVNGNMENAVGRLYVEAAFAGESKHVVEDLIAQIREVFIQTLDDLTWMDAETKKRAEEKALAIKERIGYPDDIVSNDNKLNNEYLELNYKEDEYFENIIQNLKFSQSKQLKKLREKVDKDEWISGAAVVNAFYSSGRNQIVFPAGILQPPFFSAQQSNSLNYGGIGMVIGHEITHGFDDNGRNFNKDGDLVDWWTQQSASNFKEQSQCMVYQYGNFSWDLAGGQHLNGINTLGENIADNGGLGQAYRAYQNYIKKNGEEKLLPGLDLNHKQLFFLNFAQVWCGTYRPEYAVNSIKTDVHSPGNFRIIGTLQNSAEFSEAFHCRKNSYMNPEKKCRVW

[4] = cited from earlier work
TNBS-induced colitis = settings: mouse model; cited from earlier work
[5] = cited from earlier work; remark: listed apart in the source
Method: In stability assays in human plasma, peptide X was included because this compound was selected for in vivo assays of the anti-inflammatory activity. […] After 2 h of incubation, the levels of peptide X were, respectively, 10.3 and ...

CC(C)C[C@H](N)C(=O)N[C@H](C(=O)N[C@H](C(=O)N[C@@H](Cc1ccc(O)cc1)C(=O)N1CCC[C@H]1C(=O)N[C@@H](Cc1c[nH]c2ccccc12)C(=O)N[C@H](C(=O)O)[C@@H](C)O)C(C)C)C(C)C [III, Spinorphin (Leu-Val-Val-Tyr-Pro-Trp-Thr)] (H-LVVYPWT-OH)
% of remaining peptide in human plasma after 4 h ([1]; 4 h incubation, triplicate): completely decomposed

CC(C)C[C@H](NC(=O)[C@@H](N)CSSC[C@H](N)C(=O)N[C@@H](CC(C)C)C(=O)N[C@H](C(=O)N[C@H](C(=O)N[C@@H](Cc1ccc(O)cc1)C(=O)N1CCC[C@H]1C(=O)N[C@@H](Cc1c[nH]c2ccccc12)C(=O)N[C@H](C(=O)O)[C@@H](C)O)C(C)C)C(C)C)C(=O)N[C@H](C(=O)N[C@H](C(=O)N[C@@H](Cc1ccc(O)cc1)C(=O)N1CCC[C@H]1C(=O)N[C@@H](Cc1c[nH]c2ccccc12)C(=O)N[C@H](C(=O)O)[C@@H](C)O)C(C)C)C(C)C [IX, (Cys-Leu-Val-Val-Tyr-Pro-Trp-Thr)2] (HELM PEPTIDE1{C.L.V.V.Y.P.W.T}|PEPTIDE2{C.L.V.V.Y.P.W.T}$PEPTIDE1,PEPTIDE2,1:R3-1:R3$$$V2.0)
solubility in Tris-HCl buffer with 3% DMSO [2]: did not help to dissolve

CC(C)C[C@H](NC(=O)[C@@H](N)CSSC[C@H](N)C(=O)N[C@@H](CCC(N)=O)C(=O)N[C@@H](Cc1c[nH]cn1)C(=O)N[C@@H](CC(N)=O)C(=O)N1CCC[C@H]1C(=O)N[C@@H](CCCNC(=N)N)C(=O)O)C(=O)N[C@H](C(=O)N[C@H](C(=O)N[C@@H](Cc1ccc(O)cc1)C(=O)N1CCC[C@H]1C(=O)N[C@@H](Cc1c[nH]c2ccccc12)C(=O)N[C@H](C(=O)O)[C@@H](C)O)C(C)C)C(C)C [Peptide X, Cys-Gln-His-Asn-Pro-Arg │ Cys-Leu-Val-Val-Tyr-Pro-Trp-Thr] (HELM PEPTIDE1{C.L.V.V.Y.P.W.T}|PEPTIDE2{C.Q.H.N.P.R}$PEPTIDE1,PEPTIDE2,1:R3-1:R3$$$V2.0)
level of peptide in human plasma after 2 h relative to spinorphin ([1]; 2 h incubation, times higher): 4 times | remaining at 4 h ([1]; 4 h incubation, triplicate, read-out: % of remaining peptide in human plasma after 4 h): 42% | remaining at 24 h ([1]; 24 h incubation, triplicate, read-out: % of remaining peptide in human plasma after 24 h): 8%

Gln-His-Asn-Pro-Arg [Peptide I, Sialorphin (Gln-His-Asn-Pro-Arg)]
1000 × k, degradation rate of Met-enkephalin incubated with NEP and peptide ([3]; without inhibitor 25.35 ± 1.05): 8.84 ± 0.27 ** 1/min | t1/2, half-life of Met-enkephalin incubated with NEP and peptide ([3]; without inhibitor 27 ± 1): 78 ± 2 min

Opiorphin (Gln-Arg-Phe-Ser-Arg) [II]
amount that disappears in human plasma because of potential complex formation [4]: 12% | metabolic half-life in human plasma [4]: 5 min | disappearance in human plasma by cyclization of Gln1 to Glp ([4]; maximum): ≤ 16% | anti-inflammatory effect in TNBS-induced colitis (TNBS-induced colitis): lack of a anti-inflammatory effect

Pal-KKQRFSR
anti-inflammatory effect in TNBS-induced colitis (TNBS-induced colitis): lack of a anti-inflammatory effect

Sialorphin (Gln-His-Asn-Pro-Arg) [Peptide I]
remaining peptide in human plasma after 4 h ([5]; 4 h incubation, RP-HPLC, ref Sobocinska et al. [21]): completely decomposed | stability in human plasma [5]: sensitive to degradation | anti-inflammatory effect in TNBS-induced colitis (TNBS-induced colitis): potent anti-inflammatory activity
